Measured values taken from PMC10910633 (Journal of the American Chemical Society, 2023).
Like-named read-outs stand apart in the source and are kept apart here.

How the values were obtained:
Jurkat E6-1 cells = experiment: Cytotoxicity towards Jurkat lymphocytes; format: cell-based
native PKCζ = target: T1, native PKCζ (Mus musculus, UniProt Q02956); format: binding
T1 sequence (Q02956 1-592): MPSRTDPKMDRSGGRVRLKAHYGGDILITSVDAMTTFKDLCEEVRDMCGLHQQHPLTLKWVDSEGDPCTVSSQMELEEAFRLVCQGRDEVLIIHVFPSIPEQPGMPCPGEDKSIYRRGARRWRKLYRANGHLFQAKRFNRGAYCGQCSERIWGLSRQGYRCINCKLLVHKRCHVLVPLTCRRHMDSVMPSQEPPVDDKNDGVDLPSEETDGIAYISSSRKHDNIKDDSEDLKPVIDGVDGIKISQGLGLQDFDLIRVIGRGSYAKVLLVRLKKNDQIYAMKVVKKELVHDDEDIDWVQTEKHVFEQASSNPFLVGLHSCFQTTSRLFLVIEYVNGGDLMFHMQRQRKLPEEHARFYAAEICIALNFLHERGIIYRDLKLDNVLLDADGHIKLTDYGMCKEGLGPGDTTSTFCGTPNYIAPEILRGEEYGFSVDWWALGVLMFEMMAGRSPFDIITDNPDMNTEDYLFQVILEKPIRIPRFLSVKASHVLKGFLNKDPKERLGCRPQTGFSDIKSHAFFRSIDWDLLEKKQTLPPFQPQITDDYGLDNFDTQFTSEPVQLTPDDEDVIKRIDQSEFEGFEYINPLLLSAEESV

PKCδ = details: read-out: Previously reported biochemical Ki values, PDBu; cited from earlier work
native PKCδ = native PKCδ (Mus musculus, UniProt P28867); experiment: cell-based; format: binding
Chain of native PKCδ (P28867 whole entry): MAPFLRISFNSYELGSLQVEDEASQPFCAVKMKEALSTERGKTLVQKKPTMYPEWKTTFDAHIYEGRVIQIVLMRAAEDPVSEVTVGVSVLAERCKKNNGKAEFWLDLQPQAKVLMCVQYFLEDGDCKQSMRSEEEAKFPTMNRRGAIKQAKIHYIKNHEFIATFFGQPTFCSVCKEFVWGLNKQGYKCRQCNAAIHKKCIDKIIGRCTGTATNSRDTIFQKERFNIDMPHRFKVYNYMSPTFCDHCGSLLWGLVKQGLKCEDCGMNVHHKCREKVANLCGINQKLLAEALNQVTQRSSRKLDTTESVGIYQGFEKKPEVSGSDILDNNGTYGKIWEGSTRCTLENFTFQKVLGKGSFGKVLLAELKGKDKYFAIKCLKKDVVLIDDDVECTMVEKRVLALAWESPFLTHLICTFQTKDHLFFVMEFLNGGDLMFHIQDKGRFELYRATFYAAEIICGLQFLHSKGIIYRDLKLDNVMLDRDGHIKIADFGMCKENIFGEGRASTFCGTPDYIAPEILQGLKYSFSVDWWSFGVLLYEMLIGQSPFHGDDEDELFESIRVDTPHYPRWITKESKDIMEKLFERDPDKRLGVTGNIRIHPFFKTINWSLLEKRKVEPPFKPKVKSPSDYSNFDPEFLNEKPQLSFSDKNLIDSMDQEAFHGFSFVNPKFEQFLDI

native PKCε = target: T2, native PKCε (Mus musculus, UniProt P16054); experiment: cell-based; format: binding
T2 sequence (P16054 1-737): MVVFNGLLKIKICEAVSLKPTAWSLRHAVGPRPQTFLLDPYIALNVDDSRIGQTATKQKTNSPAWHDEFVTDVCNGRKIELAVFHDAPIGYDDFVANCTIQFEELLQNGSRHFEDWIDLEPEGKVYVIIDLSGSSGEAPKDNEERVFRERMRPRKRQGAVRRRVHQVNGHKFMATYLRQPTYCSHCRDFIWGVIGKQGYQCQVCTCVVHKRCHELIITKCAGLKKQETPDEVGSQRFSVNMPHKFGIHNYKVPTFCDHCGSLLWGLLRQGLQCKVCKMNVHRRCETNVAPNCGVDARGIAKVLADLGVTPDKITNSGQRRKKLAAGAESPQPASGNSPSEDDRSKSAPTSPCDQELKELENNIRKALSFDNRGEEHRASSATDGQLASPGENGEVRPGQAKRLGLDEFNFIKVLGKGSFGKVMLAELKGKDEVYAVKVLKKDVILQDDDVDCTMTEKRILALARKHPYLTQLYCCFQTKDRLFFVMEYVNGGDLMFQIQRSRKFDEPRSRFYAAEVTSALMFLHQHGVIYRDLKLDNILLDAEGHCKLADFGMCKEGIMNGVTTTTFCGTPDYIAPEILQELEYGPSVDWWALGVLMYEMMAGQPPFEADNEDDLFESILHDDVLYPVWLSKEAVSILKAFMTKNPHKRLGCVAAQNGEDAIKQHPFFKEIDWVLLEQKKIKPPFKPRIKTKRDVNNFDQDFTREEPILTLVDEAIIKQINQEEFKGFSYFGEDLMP

HEK293T cells = experiment: Cytotoxicity towards HEK293T cells; format: cell-based; details: treatment for 48 h at concentrations of ≤ 10 μM
native PKCγ = native PKCγ (Mus musculus, UniProt P63318); experiment: cell-based; format: binding
native PKCβI = native PKCβI (Mus musculus, UniProt P68404); experiment: cell-based; format: binding
Chain of native PKCβI (P68404 whole entry): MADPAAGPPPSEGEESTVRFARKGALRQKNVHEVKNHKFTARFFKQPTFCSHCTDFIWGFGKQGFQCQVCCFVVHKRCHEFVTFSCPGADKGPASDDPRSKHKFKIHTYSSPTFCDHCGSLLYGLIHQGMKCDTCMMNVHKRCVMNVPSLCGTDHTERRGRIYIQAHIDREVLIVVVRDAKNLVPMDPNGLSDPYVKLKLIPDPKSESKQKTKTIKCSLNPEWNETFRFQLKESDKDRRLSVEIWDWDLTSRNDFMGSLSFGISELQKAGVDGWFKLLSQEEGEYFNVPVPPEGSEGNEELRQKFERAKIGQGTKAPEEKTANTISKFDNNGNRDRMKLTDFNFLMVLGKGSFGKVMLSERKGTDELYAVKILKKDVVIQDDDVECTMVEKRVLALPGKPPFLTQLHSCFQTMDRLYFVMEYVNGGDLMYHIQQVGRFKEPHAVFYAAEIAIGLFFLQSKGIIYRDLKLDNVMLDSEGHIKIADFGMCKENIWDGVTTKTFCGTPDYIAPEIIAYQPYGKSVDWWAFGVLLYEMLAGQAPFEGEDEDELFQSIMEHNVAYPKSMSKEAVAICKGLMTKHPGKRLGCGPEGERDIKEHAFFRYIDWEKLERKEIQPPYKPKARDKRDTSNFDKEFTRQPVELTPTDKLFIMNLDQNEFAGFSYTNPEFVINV

native PKCθ = native PKCθ (Mus musculus, UniProt Q02111); experiment: cell-based; format: binding
Chain of native PKCθ (Q02111 whole entry): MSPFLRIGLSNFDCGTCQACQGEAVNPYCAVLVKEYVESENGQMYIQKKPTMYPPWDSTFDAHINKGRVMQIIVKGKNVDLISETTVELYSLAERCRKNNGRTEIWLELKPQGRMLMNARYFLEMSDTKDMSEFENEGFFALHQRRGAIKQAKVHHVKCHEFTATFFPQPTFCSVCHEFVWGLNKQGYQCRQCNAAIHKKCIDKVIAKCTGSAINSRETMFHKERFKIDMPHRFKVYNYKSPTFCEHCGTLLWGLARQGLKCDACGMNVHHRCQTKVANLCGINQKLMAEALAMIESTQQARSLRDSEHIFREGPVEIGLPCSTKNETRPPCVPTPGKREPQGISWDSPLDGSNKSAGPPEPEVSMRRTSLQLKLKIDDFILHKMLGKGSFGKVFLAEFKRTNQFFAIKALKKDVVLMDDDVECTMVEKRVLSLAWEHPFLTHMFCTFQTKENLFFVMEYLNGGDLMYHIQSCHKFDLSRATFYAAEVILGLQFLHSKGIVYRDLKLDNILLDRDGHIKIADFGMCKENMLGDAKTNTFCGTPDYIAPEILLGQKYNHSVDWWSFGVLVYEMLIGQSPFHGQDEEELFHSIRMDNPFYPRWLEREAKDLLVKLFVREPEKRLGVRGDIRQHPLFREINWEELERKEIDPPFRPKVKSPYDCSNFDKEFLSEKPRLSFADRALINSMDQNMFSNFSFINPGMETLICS

native PKCη = native PKCη (Mus musculus, UniProt P23298); experiment: cell-based; format: binding
Chain of native PKCη (P23298 whole entry): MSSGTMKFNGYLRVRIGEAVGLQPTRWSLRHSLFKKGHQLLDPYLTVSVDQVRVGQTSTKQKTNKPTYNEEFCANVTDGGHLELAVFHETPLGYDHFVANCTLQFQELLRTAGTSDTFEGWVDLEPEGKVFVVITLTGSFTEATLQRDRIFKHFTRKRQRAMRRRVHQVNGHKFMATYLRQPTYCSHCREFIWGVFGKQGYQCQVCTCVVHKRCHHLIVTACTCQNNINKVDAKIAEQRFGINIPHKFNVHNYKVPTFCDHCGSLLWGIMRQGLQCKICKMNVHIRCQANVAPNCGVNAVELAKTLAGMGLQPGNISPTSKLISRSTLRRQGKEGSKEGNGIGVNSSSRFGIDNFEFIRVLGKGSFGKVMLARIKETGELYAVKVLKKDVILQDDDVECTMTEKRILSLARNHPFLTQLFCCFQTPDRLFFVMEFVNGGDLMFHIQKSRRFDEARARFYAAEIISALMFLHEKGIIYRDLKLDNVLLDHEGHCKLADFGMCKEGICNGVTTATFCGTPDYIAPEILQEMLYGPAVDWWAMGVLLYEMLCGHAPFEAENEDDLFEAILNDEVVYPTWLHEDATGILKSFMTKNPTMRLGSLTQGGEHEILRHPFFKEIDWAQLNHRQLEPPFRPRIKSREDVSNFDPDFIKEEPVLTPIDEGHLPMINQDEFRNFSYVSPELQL

PKCη = details: read-out: Previously reported biochemical Ki values, Bryostatin 1, [3H]PDBu at 4 °C; cited from earlier work
PKCα = details: read-out: Previously reported biochemical Ki values, Bryostatin 1, [3H]PDBu at 4 °C; cited from earlier work
PKCε = details: read-out: Previously reported biochemical Ki values, Bryostatin 1, [3H]PDBu at 4 °C; cited from earlier work
PKCζ = details: [3H]PDBu at 4 °C; cited from earlier work
PKCθ = details: read-out: Previously reported biochemical Ki values, Bryostatin 1, [3H]PDBu at 4 °C; cited from earlier work
PKCγ = details: read-out: Previously reported biochemical Ki values, Bryostatin 1, [3H]PDBu at 4 °C; cited from earlier work
PKCβI = details: read-out: Previously reported biochemical Ki values, Bryostatin 1, [3H]PDBu at 4 °C; cited from earlier work
native PKCα = native PKCα (Mus musculus, UniProt P20444); experiment: cell-based
[1] = read-out: Cellular Ki values for native PKCs

For `CN(C)CCCn1cc(C2=C(c3c[nH]c4ccccc34)C(=O)NC2=O)c2ccccc21` [BIM1, bisindolylmaleimide I], the “effect of BIM1 on cytotoxicity of probes 1–3 towards Jurkat lymphocytes” value (Jurkat E6-1 cells) was “reduced or eliminated” and the “effect of BIM1 on toxicity of PDBu towards Jurkat lymphocytes” value (Jurkat E6-1 cells; BIM1 2 μM) was “completely blocked”.
For `CCCC(=O)O[C@@H]1[C@@H](C)[C@@]2(O)[C@@H](C=C(CO)C[C@]3(O)C(=O)C(C)=C[C@@H]23)[C@@H]2C(C)(C)[C@]12OC(=O)CCC` [PDBu, phorbol 12, 13-dibutyrate], the “Cellular Ki values for native PKCs” value (native PKCζ) is given as “No binding”, the Ki (PKCδ) is given as […] and the “lower affinity for PKCδ in cells than in biochemical assays” value (native PKCδ) is given as 10 fold. For the same compound, the Ki (native PKCδ; [1]) was 45 nM, the Ki (native PKCε; [1]) was 43 nM and the “cytotoxicity towards HEK293T cells” value (HEK293T cells) was “non-toxic”. For the same compound, the Ki (native PKCγ; [1]) was 18 nM, the “fluctuation in measured cellular IC50 and Ki values” (native PKCβI) was “less than 3 fold” and the Ki (native PKCβI; [1]) was 15 nM. For the same compound, the Ki (native PKCθ; [1]) was 49 nM, the IC50 (Jurkat E6-1 cells; read-out: cytotoxic potency towards Jurkat lymphocytes, IC50) was 2 nM and the Ki (native PKCη; [1]) was 27 nM.
In the case of `CCC/C=C/C=C/C(=O)O[C@H]1/C(=C/C(=O)OC)C[C@H]2C[C@H]([C@@H](C)O)OC(=O)C[C@H](O)C[C@@H]3C[C@H](OC(C)=O)C(C)(C)[C@](O)(C[C@@H]4C/C(=C/C(=O)OC)C[C@H](/C=C/C(C)(C)[C@]1(O)O2)O4)O3` [bryostatin 1], the Ki (PKCη) is listed as […], the Ki (PKCα) is listed as […] and the Ki (PKCε) is listed as […]. The “Previously reported biochemical Ki values, Bryostatin 1” value (PKCζ) was “No binding”, the Ki (PKCθ) was […] and the Ki (PKCγ) was […]. For the same compound, the “Cellular Ki values for native PKCs” value (native PKCζ; PKCζ, competition with probe 1, BIM1 2 μM, 2 h 37 °C) was “No binding”, the Ki (native PKCδ) was 17 nM and the “lower affinity for PKCδ in cells than in biochemical assays” value (native PKCδ; cellular Ki versus previously reported biochemical Ki) was 8 fold. The Ki (native PKCε) was 11 nM, the Ki (PKCβI) was […] and the Ki (native PKCγ) was 2 nM. For the same compound, the Ki (native PKCα) was 4 nM, the Ki (native PKCβI) was 2 nM and the Ki (native PKCθ) was 8 nM. For the same compound, the Ki (native PKCη) was 5 nM.
